System: 624824-186-R-J2-PDC multicell spheroids, viability
Test: Anticancer human tumor 624824-186-R-J2-PDC patient-derived colon adenocarcinoma cell line growth inhibition [PI3K]
Details: for IC50: curve of first compound; for viability, T/C: stronger effect = lower value
Text: Combinatorial screen of targeted agents with the PI3K inhibitors inavolisib, alpelisib, duvelisib, and copanlisib in multi-cell type tumor spheroids
A high-throughput screen of multi-cell type tumor spheroids was designed to identify active combinations of targeted small molecules and PI3K pathway inhibitors. Complex spheroids include a stromal component modeled by human endothelial cells (HUVEC) and fibroblasts modeled by human mesenchymal stem cells (MSCs). The concentration ranges selected for each drug and investigational agent were based upon clinically achievable concentrations if the clinical Cmax of the agent was known.
Compounds. The drugs and investigational agents: inavolisib (NSC800729), alpelisib (NSC765974), duvelisib (NSC772469), copanlisib (NSC816437), ipatasertib (NSC767898), afuresertib (NSC778305), talazoparib (NSC767125), sapanisertib (NSC764658), selumetinib (NSC741078), tovorafenib (DAY101, NSC766906), vemurafenib (NSC761431), ravoxertinib (NSC781343), sotorasib (NSC818433), MRTX1133 (NSC 836407), abemaciclib (NSC 768073), palbociclib (NSC758247), venetoclax (NSC 766270), SY5609 (NSC837396), enzalutamide (NSC755605), and darolutamide (NSC825331), were obtained from the National Cancer Institute (NCI) Developmental Therapeutics Program Chemical Repository. The FDA-approved anticancer drug set is available from the NCI Developmental Therapeutics Program. […] The stock solutions were prepared in dimethyl sulfoxide (DMSO, Sigma-Aldrich, St. Louis, MO, cat. D2650) at 800-fold the tested concentration and stored at -70 degrees C prior to their use. All drugs and investigational agents were tested over a range starting from a high concentration at or near the clinical Cmax and decreasing in half-log increments. If the clinical Cmax for an agent had not been determined, the highest concentration tested was 10 microM.
Cell Culture. All cells were maintained in an incubator at 37 degrees C and 5% CO2 with 95% humidity. The PDC lines were cultured according to standard operating procedures established by the NCI PDMR (https://pdmr.cancer.gov/sops/default.htm). All PDCs were thawed and cultured in Matrigel-coated flasks prepared with a working solution of 1X Ham's F-12 nutrient mix, without supplementation (Invitrogen, Waltham, MA, cat. 11765054), 100 U/mL penicillin-streptomycin (Invitrogen, cat. 15140122), and 2.5% Matrigel (Corning Inc., Corning, NY, cat. 354248) for the first three passages. The 354836-022-R-J1-PDC, 475296-252-R-J1-PDC, and 997726-040-R-J2-PDC lines were cultured in 6A media, which includes advanced DMEM/F-12 (Thermo Fisher Scientific, cat. 12634028), 10 mM HEPES (Thermo Fisher Scientific, cat. 15630080), 1X GlutaMAX supplement (Thermo Fisher Scientific, cat. 35050061), 0.1 mg/mL primocin (InvivoGen, San Diego, CA, cat. ant-pm-2), 10% defined fetal bovine serum, heat inactivated (HyClone Laboratories Inc., Logan, UT, cat. SH30070.03HI), 50% L-WRN conditioned media (ATCC, cat. CRL-3276), 1.25 mM N-Acetyl-L-cysteine (Sigma-Aldrich, cat. A9165), 10 mM nicotinamide (Sigma-Aldrich, cat. N0636), 1X B-27 supplement (Thermo Fisher Scientific, cat. 17504044), 1X N-2 supplement (Thermo Fisher Scientific, cat. 17502048), and 10 microM Y-27632 dihydrochloride (Tocris Bioscience, Bristol, United Kingdom, cat. 1254). The 624824-186-R-J2-PDC line was cultured in 6C/Colon 1B media, which includes all 6A media components plus 50 ng/mL human EGF recombinant protein (Thermo Fisher Scientific, cat. PHG0311). […]

[1] = second compound 0.00316 µM, first compound 0.0316 µM
[2] = second compound 0.00316 µM, first compound 0.1 µM
[3] = second compound 0.01 µM, first compound 0.0316 µM
[4] = second compound 0.01 µM, first compound 0.1 µM
[5] = second compound 0.0316 µM, first compound 0.0316 µM
[6] = second compound 0.0316 µM, first compound 0.1 µM
[7] = second compound 0.1 µM, first compound 0.0316 µM
[8] = second compound 0.1 µM, first compound 0.1 µM
[9] = second compound 0.316 µM, first compound 0.0316 µM
[10] = second compound 0.316 µM, first compound 0.1 µM
[11] = second compound 1 µM, first compound 0.0316 µM
[12] = second compound 1 µM, first compound 0.1 µM
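Also: spheroids exposed to agents for 7 days before viability read.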
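For viability, T/C in this document: 100% = DMSO vehicle treated spheroids.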

CC(C)n1nc(-c2ccc3oc(N)nc3c2)c2c(N)ncnc21 + CC(Nc1ccc2c(c1)OCCn1cc(N3C(=O)OCC3C(F)F)nc1-2)C(N)=O
IC50 (second compound 0.00316 µM): > 0.1 µM
IC50 (second compound 0.01 µM): > 0.1 µM
IC50 (second compound 0.0316 µM): > 0.1 µM
IC50 (second compound 0.1 µM): > 0.1 µM
IC50 (second compound 0.316 µM): > 0.1 µM
IC50 (second compound 1 µM): > 0.1 µM
viability, T/C (second compound 0.00316 µM, first compound 0.000316 µM): 74%
viability, T/C (second compound 0.00316 µM, first compound 0.001 µM): 86.9%
viability, T/C (second compound 0.00316 µM, first compound 0.00316 µM): 95.5%
viability, T/C (second compound 0.00316 µM, first compound 0.01 µM): 92.1%
viability, T/C [1]: 89.2%
viability, T/C [2]: 87.5%
viability, T/C (second compound 0.01 µM, first compound 0.000316 µM): 106%
viability, T/C (second compound 0.01 µM, first compound 0.001 µM): 110%
viability, T/C (second compound 0.01 µM, first compound 0.00316 µM): 107%
viability, T/C (second compound 0.01 µM, first compound 0.01 µM): 86.8%
viability, T/C [3]: 105%
viability, T/C [4]: 87.2%
viability, T/C (second compound 0.0316 µM, first compound 0.000316 µM): 83.5%
viability, T/C (second compound 0.0316 µM, first compound 0.001 µM): 81.4%
viability, T/C (second compound 0.0316 µM, first compound 0.00316 µM): 67.6%
viability, T/C (second compound 0.0316 µM, first compound 0.01 µM): 78.1%
viability, T/C [5]: 91.9%
viability, T/C [6]: 90.4%
viability, T/C (second compound 0.1 µM, first compound 0.000316 µM): 88.3%
viability, T/C (second compound 0.1 µM, first compound 0.001 µM): 96.8%
viability, T/C (second compound 0.1 µM, first compound 0.00316 µM): 96.8%
viability, T/C (second compound 0.1 µM, first compound 0.01 µM): 68.4%
viability, T/C [7]: 84.5%
viability, T/C [8]: 92.5%
viability, T/C (second compound 0.316 µM, first compound 0.000316 µM): 74.9%
viability, T/C (second compound 0.316 µM, first compound 0.001 µM): 96.1%
viability, T/C (second compound 0.316 µM, first compound 0.00316 µM): 78.7%
viability, T/C (second compound 0.316 µM, first compound 0.01 µM): 72.3%
viability, T/C [9]: 82.2%
viability, T/C [10]: 75.4%
viability, T/C (second compound 1 µM, first compound 0.000316 µM): 97%
viability, T/C (second compound 1 µM, first compound 0.001 µM): 78.9%
viability, T/C (second compound 1 µM, first compound 0.00316 µM): 85%
viability, T/C (second compound 1 µM, first compound 0.01 µM): 88.5%
viability, T/C [11]: 84.1%
viability, T/C [12]: 72%

CCCS(=O)(=O)Nc1ccc(F)c(C(=O)c2c[nH]c3ncc(-c4ccc(Cl)cc4)cc23)c1F + CC(Nc1ccc2c(c1)OCCn1cc(N3C(=O)OCC3C(F)F)nc1-2)C(N)=O
IC50 (second compound 0.00316 µM): 10 µM
IC50 (second compound 0.01 µM): 8.49 µM
IC50 (second compound 0.0316 µM): 7.85 µM
IC50 (second compound 0.1 µM): 6.22 µM
IC50 (second compound 0.316 µM): 4.65 µM
IC50 (second compound 1 µM): 3.58 µM
viability, T/C [1]: 78.1%
viability, T/C [2]: 112%
viability, T/C (second compound 0.00316 µM, first compound 0.316 µM): 87.8%
viability, T/C (second compound 0.00316 µM, first compound 1 µM): 119%
viability, T/C (second compound 0.00316 µM, first compound 3.16 µM): 113%
viability, T/C (second compound 0.00316 µM, first compound 10 µM): 50%
viability, T/C [3]: 92.7%
viability, T/C [4]: 89.7%
viability, T/C (second compound 0.01 µM, first compound 0.316 µM): 73.6%
viability, T/C (second compound 0.01 µM, first compound 1 µM): 82.7%
viability, T/C (second compound 0.01 µM, first compound 3.16 µM): 109%
viability, T/C (second compound 0.01 µM, first compound 10 µM): 43.5%
viability, T/C [5]: 82.7%
viability, T/C [6]: 88.3%
viability, T/C (second compound 0.0316 µM, first compound 0.316 µM): 73.5%
viability, T/C (second compound 0.0316 µM, first compound 1 µM): 89.1%
viability, T/C (second compound 0.0316 µM, first compound 3.16 µM): 108%
viability, T/C (second compound 0.0316 µM, first compound 10 µM): 39.7%
viability, T/C [7]: 80%
viability, T/C [8]: 89.8%
viability, T/C (second compound 0.1 µM, first compound 0.316 µM): 81.9%
viability, T/C (second compound 0.1 µM, first compound 1 µM): 72.3%
viability, T/C (second compound 0.1 µM, first compound 3.16 µM): 76.3%
viability, T/C (second compound 0.1 µM, first compound 10 µM): 32.7%
viability, T/C [9]: 67.9%
viability, T/C [10]: 78.5%
viability, T/C (second compound 0.316 µM, first compound 0.316 µM): 71.7%
viability, T/C (second compound 0.316 µM, first compound 1 µM): 68%
viability, T/C (second compound 0.316 µM, first compound 3.16 µM): 62.1%
viability, T/C (second compound 0.316 µM, first compound 10 µM): 26.8%
viability, T/C [11]: 80.5%
viability, T/C [12]: 68.6%
viability, T/C (second compound 1 µM, first compound 0.316 µM): 68.7%
viability, T/C (second compound 1 µM, first compound 1 µM): 53.2%
viability, T/C (second compound 1 µM, first compound 3.16 µM): 63.1%
viability, T/C (second compound 1 µM, first compound 10 µM): 23.8%

— PubChem BioAssay AID1963975 (Molecular Pharmacology Branch, DTP, NCI, 2024)
